Structures can show the parent of a compound that is named as a salt. Values belong to the compound of their own block, whether it stands above or below them.
How the values were obtained:
[1] = tested on: VLA-4-expressing cells; settings: Wang et al. 1995; cited from earlier work
[2] = in vivo; settings: female, Balb/c, mouse, po, 10 mg/kg
Procedure: (§1) A compound was dissolved or suspended with an appropriate solvent at 1 mg/mL. Female Balb/c mice (7–9 weeks old) were given the compound orally. Blood samples were collected from the postcaval vein of the anesthetized mice after fifteen minutes. Serum was prepared and stored at −20° C. Serum concentration of the compound was determined from inhibitory activities of the diluted serum by a direct binding assay using VLA-4-expressing cells and VCAM-IgG fusion protein. Serum concentration determined by this method correlated well with the concentration determined by LC/MS/MS methodologies.

[3] = in vivo; settings: monkey, 2 mg/kg
[4] = Pharmacokinetic evaluation in monkey, single intravenous dosage; settings: single intravenous dosage (2 mg/kg), LC/MS/MS
[5] = Pharmacokinetic evaluation in mouse; type: in vivo; settings: for AUC (total area under the plasma concentration versus time curve): LC/MS/MS; for clearance / MRT: plasma; for clearance: read-out: CL (apparent plasma clearance); for MRT: read-out: MRT (mean residence time)
[6] = Mouse bio-assay: serum concentration after oral dosing, determined by direct binding assay of diluted serum; settings: 10 mg/kg
Procedure: as §1

[7] = tested on: eosinophil infiltration; assay: Eosinophil accumulation model in the rat (Compound 48/80 injected into pleural cavities); type: in vivo, male Sprague Dawley rats; settings: b.i.d. at 0 and 8 hours
Procedure: The compounds of the present invention may also be further characterized in other in vivo assays, such as the eosioophil accumulation model tested in the rat. Fifty μg of Compound 48/80 was injected into the pleural cavities of male Sprague Dawley rats. After 24 hrs, each cavity was washed twice with Hank's Balanced Salt Solution containing 0.2% EDTA. Total cell and eosinophil counts were determined. Test compounds were given intraveneously, orally or subcutaneously, b.i.d. at 0 and 8 hours.

[8] = tested on: eosinophil infiltration; assay: Murine model of Ascaris-induced bronchial inflammation: eosinophil infiltration into bronchoalveolar lavage fluid; type: in vivo; settings: mouse
Procedure: The VLA-4 inhibitors may be further characterized in in vivo assays. One such assay examines the inhibition of eosinophil infiltration into the bronchoalveolar lavage fluid in the mouse (murine) model. In this assay, the animals are treated with cyclophosphamide on day 0. On days 2 and 14, the animals are immunized intraperitoneally with Ascaris suum extract. Seven days later, the animals are treated with various doses of the VLA-4 inhibitor. Shortly after drug administration, the animals are challenged with Ascaris suum extract by instillation into the trachea. Bronchoalveolar lavage of the animal is performed by instilling saline into the lung, 48 hours later. Total cell and eosinophil counts in the lavage are determined.

[9] = Pharmacokinetic evaluation in rat; type: in vivo; settings: for AUC (total area under the plasma concentration versus time curve): LC/MS/MS; for clearance / MRT: plasma, 10 mg/kg; for clearance: read-out: CL (apparent plasma clearance); for MRT: read-out: MRT (mean residence time)
[10] = tested on: accelerated coronary arteriopathy; settings: Molossi et al. 1995; cited from earlier work
[11] = tested on: VLA-4-mediated lymphocyte adherence; settings: Molossi et al. 1995; cited from earlier work
[12] = iv, 10 mg/kg, 10 mg/kg (i.v.), line of AUC 0–6 hr
[13] = iv, 10 mg/kg, 10 mg/kg (i.v.), line of AUC 0–∞
[14] = 10 mg/kg (p.o.), line of AUC 0–6 hr
[15] = 10 mg/kg (p.o.), line of AUC 0–∞
[16] = iv, 10 mg/kg (i.v.), line of AUC 0–6 hr
[17] = iv, 10 mg/kg (i.v.), line of AUC 0–∞

Compound: CQIDSPC [Synthetic VCAM-1 peptide]
adhesion of VLA-4-expressing cells to purified VCAM-1 [1]: inhibit the adhesion

Compound: COC(=O)c1ccc(OC[C@@H]2C[C@@H](N(C)C)CN2C(=O)Cc2ccc(NC(=O)Nc3ccccc3C)c(OC)c2)cc1 [Compound 156, methyl 4-[trans-4-dimethylamino-1-[3-methoxy-4-[N′-(2-methylphenyl)ureido]phenylacetyl]-(2S)-pyrrolidinyl]methoxybenzoate HCl salt]
concentration at 15 min [2]: 285 ng/mL

clearance ([3]; plasma, iv): 4 mL/min/kg
concentration at 5 min ([3]; serum, intravenous): 65400 ng/mL
concentration at 30 min ([3]; serum, intravenous): 3900 ng/mL
concentration at 1 hr ([3]; serum, intravenous): 2220 ng/mL
concentration at 2 hr ([3]; serum, intravenous): 772 ng/mL
concentration at 4 hr ([3]; serum, intravenous): 194 ng/mL
concentration at 8 hr ([3]; serum, intravenous): 28 ng/mL
AUC (total area under the plasma concentration versus time curve) [4]: 8405 ng·h/mL
Compound: COc1cc(CC(=O)N2CC(O)C(O)C2C(=O)N2CCN(CC(=O)O)CC2)ccc1NC(=O)Nc1ccccc1C (centres unmarked) [Compound 195]

AUC (total area under the plasma concentration versus time curve) ([5]; 10 mg/kg (i.v.), 0–6 hr): 5259 (0–6 hr) ng · h/mL
AUC (total area under the plasma concentration versus time curve) ([5]; 10 mg/kg (i.v.), 0–∞): 5389 (0–∞) ng · h/mL
AUC (total area under the plasma concentration versus time curve) ([5]; 20 mg/kg (p.o.), 0–6 hr): 2190 (0–6 hr) ng · h/mL
AUC (total area under the plasma concentration versus time curve) ([5]; 20 mg/kg (p.o.), 0–∞): 3615 (0–∞) ng · h/mL
CL (apparent plasma clearance) ([5]; 20 mg/kg (p.o.), line of AUC 0–6 hr): 152.24 mL/min/kg
CL (apparent plasma clearance) ([5]; 20 mg/kg (p.o.), line of AUC 0–∞): 92.21 mL/min/kg
clearance [5, 12]: 31.7 mL/min/kg
MRT [5, 12]: 0.4 h
clearance [5, 13]: 30.9 mL/min/kg
MRT [5, 13]: 0.6 h
MRT ([5]; po, 20 mg/kg, 20 mg/kg (p.o.), line of AUC 0–6 hr): 2.3 h
MRT ([5]; po, 20 mg/kg, 20 mg/kg (p.o.), line of AUC 0–∞): 6.5 h
concentration at 15 min ([6]; female, Balb/c, serum, po): 693 ng/mL
Compound: Cc1cc(CC(=O)N2C[C@@H](F)C[C@H]2COc2ccc(C(=O)O)cc2)ccc1NC(=O)Nc1ccccc1Br [Compound 80, 4-[1-[4-[N′-(2-bromophenyl)ureido]-3-methylphenylacetyl]-(4S)-fluoro-(2S)-pyrrolidinyl]methoxybenzoic acid]
% Inhibition of Eosinophil Infiltration ([7]; 50 mg/kg 2 days, s.c.): 65.3%

Compound: Cc1ccccc1NC(=O)Nc1ccc(CC(=O)N2C[C@@H](F)C[C@H]2COc2ccc(C(=O)O)cc2)cc1Cl [Compound 90, 4-[1-[3-chloro-4-[N′-(2-methylphenyl)ureido]phenylacetyl]-(4S)-fluoro-(2S)-pyrrolidinyl]methoxybenzoic acid]
AUC (total area under the plasma concentration versus time curve) ([5]; 10 mg/kg (i.v.), 0–6 hr): 8995 (0–6 hr) ng · h/mL
AUC (total area under the plasma concentration versus time curve) ([5]; 10 mg/kg (i.v.), 0–∞): 9219 (0–∞) ng · h/mL
AUC (total area under the plasma concentration versus time curve) ([5]; 10 mg/kg (p.o.), 0–6 hr): 2540 (0–6 hr) ng · h/mL
AUC (total area under the plasma concentration versus time curve) ([5]; 10 mg/kg (p.o.), 0–∞): 2950 (0–∞) ng · h/mL
CL (apparent plasma clearance) [5, 14]: 65.62 mL/min/kg
CL (apparent plasma clearance) [5, 15]: 56.50 mL/min/kg
clearance [5, 12]: 18.5 mL/min/kg
MRT [5, 12]: 0.5 h
clearance [5, 13]: 18.1 mL/min/kg
MRT [5, 13]: 0.7 h
MRT ([5]; po, 10 mg/kg, 10 mg/kg (p.o.), line of AUC 0–6 hr): 1.2 h
MRT ([5]; po, 10 mg/kg, 10 mg/kg (p.o.), line of AUC 0–∞): 2.5 h
% Inhibition of Eosinophil Infiltration ([8]; 10 mg/kg t.i.d. × 2 days, p.o.): 18.1%
% Inhibition of Eosinophil Infiltration ([8]; 30 mg/kg b.i.d. × 2 days, i.v.): 47.3%
% Inhibition of Eosinophil Infiltration ([8]; 30 mg/kg t.i.d. × 2 days, p.o.): 39.1%
% Inhibition of Eosinophil Infiltration ([8]; 50 mg/kg t.i.d. × 2 days, p.o.): 45.9%
AUC (total area under the plasma concentration versus time curve) ([9]; 10 mg/kg (i.v.), 0–6 hr): 31915 (0–6 hr) ng · h/mL
AUC (total area under the plasma concentration versus time curve) ([9]; 10 mg/kg (i.v.), 0–∞): 33488 (0–∞) ng · h/mL
AUC (total area under the plasma concentration versus time curve) ([9]; 10 mg/kg (p.o.), 0–6 hr): 11454 (0–6 hr) ng · h/mL
AUC (total area under the plasma concentration versus time curve) ([9]; 10 mg/kg (p.o.), 0–∞): 19968 (0–∞) ng · h/mL
CL (apparent plasma clearance) [9, 14]: 17.85 mL/min/kg
CL (apparent plasma clearance) [9, 15]: 9.99 mL/min/kg
clearance [9, 16]: 5.23 mL/min/kg
MRT [9, 16]: 0.8 h
clearance [9, 17]: 4.98 mL/min/kg
MRT [9, 17]: 1.1 h
MRT ([9]; po, 10 mg/kg (p.o.), line of AUC 0–6 hr): 1.7 h
MRT ([9]; po, 10 mg/kg (p.o.), line of AUC 0–∞): 8.8 h
Serum Concentration ([6]; oral, 15 minutes post-administration): 3659 ng/mL
% Inhibition of Eosinophil Infiltration ([7]; 3 mg/kg 2 days, i.v.): 25.4%
% Inhibition of Eosinophil Infiltration ([7]; 10 mg/kg 2 days, i.v.): 46.7%
% Inhibition of Eosinophil Infiltration ([7]; 30 mg/kg 2 days, i.v.): 83.7%
% Inhibition of Eosinophil Infiltration ([7]; 50 mg/kg 2 days, p.o.): 50.5%

Compound: phenylacetic acid-Leu-Asp-Phe-d-Pro-amide
accelerated coronary arteriopathy in rabbit cardiac allografts [10]: reduced
VLA-4-mediated lymphocyte adherence in vitro [11]: inhibited

Reference: US7179819B2, “VLA-4 inhibitor compounds” (Daiichi Pharmaceutical Co., Ltd., priority 1999, dated 2007)
